Measured values: patent publication US20240246968A1, “SMALL MOLECULE INHIBITORS OF KRAS G12C MUTANT” (Merck Sharp & Dohme LLC, priority 2021, published 2024)
pIC50: −log10 of the molar value.

Columns and labels:
[1] = biological target: Gppcp-bound recombinant K-Ras4B G12C mutant protein (amino acids 1-169, C51S/C80L/C118S) (Homo sapiens, UniProt P01116, C118S/C51S/C80L/G12C); experiment: KRASG12C binding assay (LC-MS, compound binding rate); conditions: test compound final concentration 0.5 μM, 25° C., 1 hour
Method: As test compounds for the KRASG12C binding assay, the compounds obtained in the “Preparation of Compounds” section were used. Sample solutions each containing a test compound were prepared in the form of a 10 mM DMSO solution.
Gppcp-bound recombinant K-Ras4B G12C mutant protein (amino acids 1-169, C51S/C80L/C118S, SEQ ID NO:1) was diluted with a buffer (1×TBS, 0.1 mM TCEP, 0.25 mM MgCl2, 50 μM Gppcp) to prepare a 50 nM protein solution. K-Ras4B is the major splicing variant of K-Ras. Amino acid sequence of residues 1 to 150 including the compounds' binding region of K-Ras4B is exactly same as that of K-Ras4A, the other splicing variant (Oncotarget. 2016 Jul. 19; 7(29): 46717-46733). A sample solution containing 10 mM test compound was diluted ten-fold with DMSO to make a 1 mM sample solution, and then diluted twenty-fold with DMSO to make a 50 μM sample solution. 1 μL of a 50 μM sample solution was added to 100 μL of a 50 nM protein solution to adjust the final concentration of a test compound to be 0.5 μM in the mixture. The mixtures were stored in an incubator at 25° C. for 1 hour, and 10 μL of a 1×TBS solution containing 2% formic acid was added to stop the reaction, followed by LC-MS measurement. LC-MS measurement was performed using Xevo G2-S Q-Tof manufactured by Waters, and reverse-phase chromatography was performed with a desalting column. A mass spectrum of positive ions was obtained by electrospray. For a mass spectrum, a spectrum of polyvalent ions was collectively converted to a molecular weight by using OpenLynx software by the MaxEnt technique, and a compound binding rate was calculated from the ratio of the signal intensity of a peak that corresponds to the molecular weight of the protein to the signal intensity of a peak that corresponds to the molecular weight of the protein conjugated with the compound.
The binding assay of the test compounds was conducted at a final concentration of 0.5 μM. A binding rate of 80% or more is rated “A”, a binding rate of 60% or more and less than 80% is rated “B”, a binding rate of 40% or more and less than 60% is rated “C”, a binding rate of 20% or more and less than 40% is rated “D”, and a binding rate of less than 20% is rated “E”. N.D.=not determined. Binding rate % is the ratio of KRAS signal intensity at the molecular weight of one molecule adduct to the sum of all the KRAS signal intensity (unbound form and adducts) in mass spectrum. Thus, binding rate 100% means that only the one molecule adduct was observed without any unbound KRAS. The following tables show the results.

[2] = biological target: T1, interaction between recombinant K-Ras4B G12C mutant protein and cRAF RAS-binding domain (cRAF-RBD) (Homo sapiens, UniProt P01116, G12C); experiment: Inhibitory activity on interaction between KRAS G12C and cRAF (Alpha technology); assay type: biochemical; conditions: GMPPNP-bound KRAS G12C incubated with compound at 25° C. for 1 hour, then cRAF-RBD; Alpha signal
T1 construct: made in house; host or cells: E. coli
Method: Interaction between recombinant K-Ras4B G12C mutant protein (amino acids 1-169, SEQ ID NO:2) and cRAF RAS-binding domain (cRAF-RBD, amino acids 50-132, Jena Biosciences GmbH) was measured using Alpha technology (PerkinElmer Inc.).
Recombinant KRAS G12C protein with an N-terminal His-tag was expressed in E. coli and purified by affinity chromatography. To prepare GTP-bound form and GDP-bound form of KRAS G12C protein. 50 μM KRAS G12C protein was incubated with 1 mM GMPPNP (Guanosine-5′-[(β,γ)-imido]triphosphate. Tetralithium salt)(Jena Bioscience GmbH) and 1 mM GDP, respectively, in a loading buffer (20 mM Tris-HCl (pH 7.5), 50 mM NaCl, 1 mM DTT and 2.5 mM EDTA) for 1 hour on ice. After the incubation, MgCl2 was added to a final concentration of 10 mM, followed by incubation at room temperature for 30 minutes. The mixture was allowed to pass through a NAP-5 column to remove free nucleotides and purified, and the resultant nucleotide-bound KRAS G12C protein was used for compound evaluation.
For the measurement of the inhibitory activity of compounds on interaction between KRAS G12C and cRAF-RBD, GMPPNP-bound KRAS G12C protein was incubated with various concentrations of compound in a reaction buffer (20 mM Tris-HCl (pH 7.5), 100 mM NaCl, 1 mM MgCl2, 1 mM TCEP. 0.1% Tween 20) at 25° C. for 1 hour. After the incubation, recombinant cRAF-RBD and Alpha detection reagents were added and incubated at room temperature for 1.5 hours for binding. Interaction of KRAS G12C and cRAF-RBD was monitored by measuring Alpha signal. Inhibition % was calculated using the signal from the reaction without test compound (DMSO control) as 0% inhibition and the signal from the reaction using GDP-bound KRAS G12C in place of GMPPNP-bound KRAS G12C as 100% inhibition. IC50 values were calculated from dose titration curve using curve fitting by XLfit software (IDBS). The following tables show the results.

[3] = test system: MIA PaCa-2 cells; experiment: Growth inhibition activity on KRAS-G12C mutant cell line (MIA PaCa-2), CellTiter-Glo 3D; assay type: cell-based, human; conditions: MIA PaCa-2, 3-day culture with compound
Method: MIA PaCa-2 cells (given by Sumitomo Dainippon Pharma Co., Ltd.), which are a KRAS-G12C mutant human pancreas cancer cell line, were suspended in a 10% fetal bovine serum-containing RPMI1640 medium (manufactured by Fujifilm Wako Pure Chemical Corporation.). The cell suspension was seeded into each well of a 384-well U bottom microplate and cultured in an incubator containing 5% CO2 gas at 37° C. for 1 day. The compounds obtained in the “Preparation of Compounds” section were used as test compounds and were dissolved in DMSO, respectively, and each test compound was diluted with DMSO to give a concentration 500 times the final concentration. The resultant solution of the test compound in DMSO was diluted with the medium used for suspending cells and added to each well of the cell-culture plate to give a DMSO final concentration of 0.2%, followed by culture in an incubator containing 5% CO2 gas at 37° C. for another 3 days. The cell count after 3-day culture in the presence of the test compound was measured using CellTiter-Glo 3D Reagent (manufactured by Promega Corporation). All wells were added with CellTiter-Glo 3D Reagent and mixed for 10 minutes. 30 minutes after mixing, luminescence was measured by a plate reader. The growth inhibition rate was calculated from the following equation, and the concentration of the test compound at which 50/o inhibition was achieved (IC50 (nM)) was determined. The following tables show the results.
[formula] • T: the emission intensity in a well into which a test compound was added. • C: the emission intensity in a well into which a test compound was not added.

SMILES | pIC50 [2] | pIC50 [3] | pIC50 ([3]; Homo sapiens, MIA PaCa-2, 72 h) | binding rate [1]
COc1cc(-c2cncn2C)cc(Cl)c1-c1cccn2c(C(=O)c3cc(F)c(NC(=O)/C=C/CN[C@H]4CC[C@H](OC)CC4)c(F)c3)ccc12 [Example 42, (E)-N-(4-(8-(2-chloro-6-methoxy-4-(1-methyl-1H-imidazol-5-yl)phenyl)indolizine-3-carbonyl)-2,6-difluorophenyl)-4-(((1r,4r)-4-methoxycyclohexyl)amino)but-2-enamide] | 7.07 | – | 6.21 | A (A binding rate of 80% or more is rated “A”)
CO[C@H]1CC[C@H](NC/C=C/C(=O)Nc2c(F)cc(C(=O)c3cc(C(=O)N(C)C)c4c(-c5c(C)cc6c(nc(C)n6C)c5Cl)cccn34)cc2F)CC1 [Example 106, 8-(4-chloro-1,2,6-trimethyl-1H-benzo[d]imidazol-5-yl)-3-(3,5-difluoro-4-((E)-4-(((1r,4r)-4-methoxycyclohexyl)amino)but-2-enamido)benzol)-N,N-dimethylindolizine-1-carboxamide] | 7.51 | – | 6.87 | A (A binding rate of 80% or more is rated “A”)
Cc1nc2cc(-c3cccn4c(C(=O)c5cc(F)c(NC(=O)/C=C/CN[C@H]6CCOC6)c(F)c5)ccc34)c(C(F)(F)F)cc2n1C [Example 92] | 7.10 | – | 6.92 | A (A binding rate of 80% or more is rated “A”)
Cc1nc2cc(-c3cccn4c(C(=O)c5cc(F)c(NC(=O)/C=C/CNC67CCC(F)(CC6)CC7)c(F)c5)ccc34)c(C(F)(F)F)cc2n1C [Example 85, (E)-N-(4-(8-(1,2-dimethyl-6-(trifluoromethyl)-1H-benzo[d]imidazol-5-yl)indolizine-3-carbonyl)-2,6-difluorophenyl)-4-((4-fluorobicyclo[2.2.2]octan-1-yl)amino)but-2-enamide] | 7.35 | – | 6.96 | A (A binding rate of 80% or more is rated “A”)
Cc1nc2cc(-c3cccn4c(C(=O)c5cc(F)c(NC(=O)/C=C/CNC(C)(C)CF)c(F)c5)ccc34)c(C(F)(F)F)cc2n1C [Example 76, (E)-N-(4-(8-(1,2-dimethyl-6-(trifluoromethyl)-1H-benzo[d]imidazol-5-yl)indolizine-3-carbonyl)-2,6-difluorophenyl)-4-((1-fluoro-2-methylpropan-2-yl)amino)but-2-enamide] | 7.12 | – | 6.52 | A (A binding rate of 80% or more is rated “A”)
Cc1nc2cc(-c3cccn4c(C(=O)c5cc(F)c(NC(=O)/C=C/CNC67CCC(F)(CC6)C7)c(F)c5)ccc34)c(C(F)(F)F)cc2n1C [Example 84, (E)-N-(4-(8-(1,2-dimethyl-6-(trifluoromethyl)-1H-benzo[d]imidazol-5-yl)indolizine-3-carbonyl)-2,6-difluorophenyl)-4-((4-fluorobicyclo[2.2.1]heptan-1-yl)amino)but-2-enamide] | 7.04 | – | 6.92 | A (A binding rate of 80% or more is rated “A”)
Cc1nc2cc(-c3cccn4c(C(=O)c5cc(F)c(NC(=O)/C=C/CN[C@H]6CC[C@H](O)CC6)c(F)c5)ccc34)c(C(F)(F)F)cc2n1C [Example 55] | 7.39 | – | 7.06 | A (A binding rate of 80% or more is rated “A”)
Cc1cc2c(ncn2C)c(Cl)c1-c1cccn2c(C(=O)c3cc(F)c(NC(=O)/C=C/CNC(C)(C)C)c(F)c3)ccc12 (single isomer, unassigned) [Example 13-2, (E)-4-(tert-butylamino)-N-(4-(8-(4-chloro-1,6-dimethyl-1H-benzo[d]imidazol-5-yl)indolizine-3-carbonyl)-2,6-difluorophenyl)but-2-enamide] | 6.49 | 6.66 | – | A (A binding rate of 80% or more is rated “A”)

The next lines start with results.

pIC50 [2] | pIC50 [3] | pIC50 ([3]; Homo sapiens, MIA PaCa-2, 72 h) | SMILES | binding rate [1]
7.59 | 7.82 | – | COc1c(-c2cccn3c(C(=O)c4cc(F)c(NC(=O)/C=C/CN[C@H]5CC[C@H](OC)CC5)c(F)c4)ccc23)c(C(F)(F)F)cc2c1nc(C)n2C (single isomer, unassigned) [Example 60-2, (E)-N-(2,6-difluoro-4-(8-(4-methoxy-1,2-dimethyl-6-(trifluoromethyl)-1H-benzo[d]imidazol-5-yl)indolizine-3-carbonyl)phenyl)-4-(((1r,4r)-4-methoxycyclohexyl)amino)but-2-enamide] | A (A binding rate of 80% or more is rated “A”)
7.03 | 6.89 | – | CO[C@H]1CC[C@H](NC/C=C/C(=O)Nc2c(F)cc(C(=O)c3ccc4c(-c5c(C)cc6c(ncn6C)c5C)cccn34)cc2F)CC1 (single isomer, unassigned) [Example 34-1, (E)-N-(2,6-difluoro-4-(8-(1,4,6-trimethyl-1H-benzo[d]imidazol-5-yl)indolizine-3-carbonyl)phenyl)-4-(((1r,4r)-4-methoxycyclohexyl)amino)but-2-enamide] | A (A binding rate of 80% or more is rated “A”)
7.70 | 7.37 | – | COc1c(-c2cc(F)cn3c(C(=O)c4cc(F)c(NC(=O)/C=C/CNC5(C)CC5)c(F)c4)cnc23)c(C(F)(F)F)cc2c1nc(C)n2C (single isomer, unassigned) [Example 112-1, (E)-N-(2,6-difluoro-4-(6-fluoro-8-(4-methoxy-1,2-dimethyl-6-(trifluoromethyl)-1H-benzo[d]imidazol-5-yl)imidazo[1,2-a]pyridine-3-carbonyl)phenyl)-4-((1-methylcyclopropyl)amino)but-2-enamide] | –
